Here are results for 12 compounds from patent publication US20240101549A1, “N-(2-(4-CYANOTHIAZOLIDIN-3-YL)-2-OXOETHYL)-QUINOLINE-4-CARBOXAMIDES” (AstraZeneca AB, priority 2020, published 2024).

One series deals with Rat Hepatocytes (rHep). The experiment in a line: Metabolic stability in rat hepatocytes (rHep). The class given is in vitro ADME. As to conditions: n = 1 or geometric mean of n = 2-3.
In a further series the target is FAP (Macaca fascicularis, UniProt A0A2K5VGH4). The experiment in a line: FAP plasma inhibition assay, cynomolgus plasma. As to conditions: cynomolgus plasma diluted 1:40, 75 μM Ala-Pro-AMC; n = 1; read-out: FAP Cyno Plasma IC50. The class given is biochemical. The method, then: D. FAP Plasma Inhibition Assay This assay was adapted from the method described in Example 237 for detection of FAP target engagement enzyme activity in plasma. […] Compounds were tested using 10 CR, 3 fold dilution series from 500 nM FAC. Two replicates for each assay point were run on the same plate. A fluorescence blank read was taken before substrate addition. […] Plates were incubated for 40 min at rt in the dark. […] IC50 values were determined by plotting % inhibition versus log compound concentration.
FAP, sequence (A0A2K5VGH4 entry or part of it): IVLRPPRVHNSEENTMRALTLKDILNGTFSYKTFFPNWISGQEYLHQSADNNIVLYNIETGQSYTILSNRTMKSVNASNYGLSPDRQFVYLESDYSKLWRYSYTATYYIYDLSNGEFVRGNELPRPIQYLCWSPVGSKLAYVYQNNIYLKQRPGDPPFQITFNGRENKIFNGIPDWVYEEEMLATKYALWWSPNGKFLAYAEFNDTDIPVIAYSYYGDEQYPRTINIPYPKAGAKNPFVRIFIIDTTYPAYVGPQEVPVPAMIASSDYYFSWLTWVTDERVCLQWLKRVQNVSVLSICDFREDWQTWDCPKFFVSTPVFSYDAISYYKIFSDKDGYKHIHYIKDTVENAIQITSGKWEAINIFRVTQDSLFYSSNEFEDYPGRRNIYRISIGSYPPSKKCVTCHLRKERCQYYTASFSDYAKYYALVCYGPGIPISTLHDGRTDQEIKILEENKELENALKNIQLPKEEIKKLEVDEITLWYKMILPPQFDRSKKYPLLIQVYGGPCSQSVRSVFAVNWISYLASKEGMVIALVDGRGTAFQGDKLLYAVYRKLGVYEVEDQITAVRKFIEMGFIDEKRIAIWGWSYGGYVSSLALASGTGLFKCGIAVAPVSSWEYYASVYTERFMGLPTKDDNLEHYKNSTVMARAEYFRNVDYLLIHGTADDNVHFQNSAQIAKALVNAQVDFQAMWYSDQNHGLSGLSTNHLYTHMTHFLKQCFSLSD

A further series can be described thus: Caco-2 cell permeability. The settings on record: human, Caco-2, AB intrinsic; n = 1 or average of n = 2-4; read-out: Caco2 AB Intrinsic Papp. The class given is in vitro ADME. In general terms: Passage across Caco-2 layers is used to estimate intestinal permeability.

Experimental for Caco-2 cell permeability: Caco-2 cell permeability was measured as described in Mol Pharm 2017, 14, 1601.

Turning to `CC1CC(F)(F)CCN1c1ccc2nccc(C(=O)NCC(=O)N3CSC[C@H]3C#N)c2c1` (mixture of isomers) [Example 44, N-(2-((R)-4-Cyanothiazolidin-3-yl)-2-oxoethyl)-6-((RS)-4,4-difluoro-2-methylpiperidin-1-yl)quinoline-4-carboxamide], in the series with Rat Hepatocytes (rHep), the “rHep CLint” value turned out to be 160 μL/min/1E6.

In the case of `CC1N(c2ccc3nccc(C(=O)NCC(=O)N4CSC[C@H]4C#N)c3c2)CC1(F)F` (mixture of isomers) [Example 159, N-(2-((R)-4-Cyanothiazolidin-3-yl)-2-oxoethyl)-6-((RS)-3,3-difluoro-2-methylazetidin-1-yl)quinoline-4-carboxamide], in the series with Rat Hepatocytes (rHep), the “rHep CLint” value came out at 47 μL/min/1E6.

For the compound `N#C[C@@H]1CSCN1C(=O)CNC(=O)c1ccnc2ccc(N3CCOCC3C(F)(F)F)cc12` (single isomer, unassigned) [Example 84, N-(2-((R)-4-Cyanothiazolidin-3-yl)-2-oxoethyl)-6-((R*)-3-(trifluoromethyl)-morpholino)quinoline-4-carboxamide], in the series on Rat Hepatocytes (rHep), the “rHep CLint” value is listed as 26 μL/min/1E6.

For `N#C[C@@H]1CSCN1C(=O)CNC(=O)c1c(F)cnc2ccc(N3CCOCC3)cc12` [Example 2, (R)—N-(2-(4-Cyanothiazolidin-3-yl)-2-oxoethyl)-3-fluoro-6-morpholino-quinoline-4-carboxamide], the IC50 on FAP was found to be 9.2 nM. The Papp A→B in “Caco-2 cell permeability” was determined as 23 ×10⁻⁶ cm/s.

With `N#C[C@@H]1CSCN1C(=O)CNC(=O)c1ccnc2ccc(N3CC(C(F)F)C3)cc12` [Example 28, (R)—N-(2-(4-Cyanothiazolidin-3-yl)-2-oxoethyl)-6-(3-(difluoromethyl)-azetidin-1-yl)quinoline-4-carboxamide], the IC50 on FAP was found to be 0.3 nM. In “Caco-2 cell permeability”, the Papp A→B came out at 21 ×10⁻⁶ cm/s.

Consider `CC1(C)CN(c2ccc3nccc(C(=O)NCC(=O)N4CSC[C@H]4C#N)c3c2)CCO1` [Example 88, (R)—N-(2-(4-Cyanothiazolidin-3-yl)-2-oxoethyl)-6-(2,2-dimethyl-morpholino)quinoline-4-carboxamide], for which, on FAP, the IC50 was determined as 0.2 nM. For the same compound, the Papp A→B in “Caco-2 cell permeability” was determined as 13 ×10⁻⁶ cm/s.

On to `N#C[C@@H]1CSCN1C(=O)CNC(=O)c1ccnc2ccc(N3C4CCC3COC4)cc12` [Example 98, 6-(3-Oxa-8-azabicyclo[3.2.1]octan-8-yl)-N-(2-((R)-4-cyanothiazolidin-3-yl)-2-oxoethyl)quinoline-4-carboxamide], for which, at FAP, the concentration for half-maximal inhibition (IC50) was found to be 0.3 nM. Further, the Papp A→B in the series “Caco-2 cell permeability” is 8.6 ×10⁻⁶ cm/s.

Consider `N#C[C@@H]1CSCN1C(=O)CNC(=O)c1ccnc2ccc(N3CC(CF)C3)cc12` [Example 113, (R)—N-(2-(4-Cyanothiazolidin-3-yl)-2-oxoethyl)-6-(3-(fluoromethyl)azetidin-1-yl)quinoline-4-carboxamide], for which the IC50 on FAP turned out to be 0.4 nM. For the same compound, the Papp A→B in “Caco-2 cell permeability” turned out to be 20 ×10⁻⁶ cm/s.

With `CC1(C)Cc2c(-c3ccc4nccc(C(=O)NCC(=O)N5CSC[C@H]5C#N)c4c3)cnn2C1` [Example 123, (R)—N-(2-(4-Cyanothiazolidin-3-yl)-2-oxoethyl)-6-(5,5-dimethyl-5,6-dihydro-4H-pyrrolo[1,2-b]pyrazol-3-yl)quinoline-4-carboxamide], the Papp A→B in “Caco-2 cell permeability” worked out at 14 ×10⁻⁶ cm/s.

As for `CC1(O)CN(c2ccc3nccc(C(=O)NCC(=O)N4CSC[C@H]4C#N)c3c2)C1` [Example 165, (R)—N-(2-(4-Cyanothiazolidin-3-yl)-2-oxoethyl)-6-(3-hydroxy-3-methyl-azetidin-1-yl)quinoline-4-carboxamide], in the series “Caco-2 cell permeability”, the Papp A→B stood at 0.51 ×10⁻⁶ cm/s.

Consider `CC(=O)N1CC2(C1)CN(c1ccc3nccc(C(=O)NCC(=O)N4CSC[C@H]4C#N)c3c1)C2` [Example 184, (R)-6-(6-Acetyl-2,6-diazaspiro[3.3]heptan-2-yl)-N-(2-(4-cyanothiazolidin-3-yl)-2-oxoethyl)quinoline-4-carboxamide], for which the IC50 on FAP came to 0.3 nM. The Papp A→B in the series “Caco-2 cell permeability” worked out at 0.1 ×10⁻⁶ cm/s.

Consider `CC1(CS(C)(=O)=O)CN(c2ccc3nccc(C(=O)NCC(=O)N4CSC[C@H]4C#N)c3c2)C1` [Example 188, (R)—N-(2-(4-Cyanothiazolidin-3-yl)-2-oxoethyl)-6-(3-methyl-3-((methylsulfonyl)methyl)azetidin-1-yl)quinoline-4-carboxamide], for which the Papp A→B in the series “Caco-2 cell permeability” stood at 0.28 ×10⁻⁶ cm/s.

Usually IC50 stands for the midpoint of a concentration-inhibition curve.
